Measured values taken from patent US12233071B2, “Medicament for treating cough” (NIPPON CHEMIPHAR CO., LTD, priority 2018, dated 2025).
Where a name gives a salt, the structure may show the parent alone. Read-outs that look alike come from different tables or passages of the source.

Legend:
human P2X4 = target: T1, human P2X4 (Homo sapiens, UniProt Q99571); assay: P2X4 receptor antagonistic action: ATP-induced intracellular calcium response (Fura-2AM) in P2X4 receptor-expressing 1321N1 cells; assay type: cell-based
T1 sequence (Q99571 1-388): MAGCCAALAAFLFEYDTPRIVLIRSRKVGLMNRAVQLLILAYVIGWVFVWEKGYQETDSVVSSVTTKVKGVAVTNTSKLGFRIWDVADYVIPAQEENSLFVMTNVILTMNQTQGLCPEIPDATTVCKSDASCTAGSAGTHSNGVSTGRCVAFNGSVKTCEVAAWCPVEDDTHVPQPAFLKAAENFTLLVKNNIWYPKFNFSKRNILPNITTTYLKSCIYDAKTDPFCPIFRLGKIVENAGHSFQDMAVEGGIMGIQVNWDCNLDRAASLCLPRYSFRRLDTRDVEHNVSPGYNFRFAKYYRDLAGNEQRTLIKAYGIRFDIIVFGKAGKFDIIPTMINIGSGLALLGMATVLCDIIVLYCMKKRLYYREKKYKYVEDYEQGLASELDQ
Protocol: An ATP receptor (human P2X4) was introduced in 1321N1 cells, which were then used as a system in which P2X4 receptor was expressed stably. The P2X4 receptor-expressing cells were seeded on a 96-well plate, were cultured for 24 h under conditions at 37° C. and 5% C02, and were then used for calcium measurement. Fura-2AM, which is a calcium fluorescence indicator, was dissolved in an extracellular solution for calcium imaging and applied to the seeded cells. Then, the cells were allowed to stand at room temperature for 45 min. In this way, the Fura-2AM was taken up in the cells. A micro plate reader EnVision (PerkinElmer) was used for the measurement. Light emitted from a xenon lamp was made to pass through a 340-nm or 380-nm filter, and F340 or F380, which is 510-nm fluorescence emitted when the cells were irradiated, were observed. Then, a change in the ratio value F340/F380 was an index for the intracellular calcium change. The measurement was carried out by adding ATP at the final concentration of 1 μM to each well and by recording, over time, the ATP-induced intracellular calcium response. The inhibitory activity of each test substance was measured by conducting 15-min pretreatment with each test substance before ATP application, and was calculated while compared to the case of the absence of the test substance.

[1] = tested on: citric acid-induced cough; settings: cited from earlier work
[2] = tested on: citric acid (0.5 M)-induced cough; assay: Citric acid-induced cough reflux in pretreatment guinea pigs, oral administration; assay type: in vivo, Hartly strain guinea pigs; settings: for number of coughs, pre versus post administration: pretreatment guinea pigs
Source text: Cough reflux is induced by inhalation of (in the case of mice, 0.1 M or 0.25 M and in the case of guinea pigs, 0.25 M or 0.5 M) citric acid by mice or guinea pigs under non-anesthesia conditions. The citric acid is made aerosol by using an ultrasonic nebulizer (NE-U17: OMRON Corporation), and is inhaled while the air is supplied with an artificial respirator (SN-480-7: Shinano Seisakusho). The citric acid aerosol has an average particle size of from 1 to 8 μm, and the artificial respirator is used to supply the air at a one-time ventilation volume of 6 mL, a frequency of 30 times per min, and an inhalation period of 3 min.
The respiration and the cough reflux are measured in accordance with the body-plethysmograph method. The plethysmograph used includes: a plastic-made, cylindrical cylinder part in which the trunk of each mouse or guinea pig is housed; and a cap part that covers the head portion (any plastic-made cylinder is allowed as long as each experimental animal can be put in; in the case of the mouse, for instance, the part with a diameter of 4 cm and a length of 7 cm was used). An exhaust hole is created at an upper cylinder portion so as to be able to connect, via a silicon tube, to a respiratory flow meter (TP-602T: NIHON KOHDEN CORPORATION). To tightly seal the inside of the cylinder, a rubber or celluloid collar is attached to the neck of each animal, and the cap covering the whole head is used to fix them. The head-attached cap part has an exhaust port and an inhalation port created for inhalation of a cough-inducing substance. In addition, a screw-type lid is attached to a tail portion of the cylinder so as to move in or out each experimental animal. Each mouse is put in the cylinder, allowed to play for at least 30 min, adapted to an experimental environment, and then subjected to the experiment. The respiration is recorded in a PC (IdeaPad 300: Lenovo) for measurement by measuring, as a change in volume of the cylinder, the chest movement of each experimental animal in the cylinder by using a PowerLab (ML826 PowerLab 2/26: AD Instruments) via a respiratory flow meter. When a cough is induced, the chest of the experimental animal is moved vigorously, which causes an instantaneous large volume change in the cylinder. This change is recorded using the respiratory flow meter. This frequency is recorded to measure the number of coughs. The data is analyzed by LabChart version 8 (ADInstruments). In addition, immediately before inhalation of citric acid, the respiratory frequency per 15 sec is measured.
In this way, the effects were investigated.
At that time, Hartly strain guinea pigs were used as the guinea pigs, and 0.5 M citric acid was used as the citric acid.
In this way, the effects were investigated. Here, 0.5 M citric acid was used as the pretreated citric acid.

[3] = tested on: citric acid (0.25 M)-induced cough; assay: Citric acid-induced cough reflux in pretreatment mice, oral administration; assay type: in vivo, ICR strain mice; settings: oral 10 mg/kg, 0.25 M citric acid 1 h after administration
[4] = Table 131 (Example 1), human P2X4-expressing 1321N1 cells, ATP 1 μM, Fura-2AM calcium response, read-out: IC50

5-[4-[(2-(3-fluorophenyl)ethyl)-1H-imidazol-1-yl]phenyl]-1H-naphtho[1,2-b][1,4]diazepin-2,4(3H,5H)-dione hydrochloride [Compound H31]
IC50 (human P2X4; Table 135 (Example 14), same protocol as Example 1, read-out: Inhibitory action IC50): 51 nM

Nc1ncnc2c1ncn2[C@@H]1O[C@H](COP(=O)(O)OP(=O)(O)OP(=O)(O)O)[C@@H](O)[C@H]1O [ATP, adenosine triphosphate]
effect of ATP on citric acid-induced cough ([1]; guinea pigs, Non Patent Literature 1): elicited a concentration-dependent and significant increase

O=C1CN=C(c2cccc(-c3nnn[nH]3)c2)c2ccc3ccccc3c2N1 [Compound A21, 5-[3-(1H-tetrazol-5-yl)phenyl]-1,3-dihydro-2H-naphtho[1,2-e][1,4]diazepin-2-one sodium salt]
IC50 (human P2X4): 910 nM

O=C1CC(=O)N(c2ccc(F)c(-c3nnn[nH]3)c2)c2ccc3ccccc3c2N1 [Compound A23, 5-[4-fluoro-3-(1H-tetrazol-5-yl)phenyl]-1H-naphtho[1,2-b][1,4]diazepin-2,4(3H,5H)-dione sodium salt]
IC50 (human P2X4; [4]): 490 nM

O=c1[nH]c2c3ccccc3ccc2n(-c2cccc(-c3nnn[nH]3)c2)c1=O [Compound C2, 4-[3-(1H-tetrazol-5-yl)phenyl]-1,4-dihydrobenzo[f]quinoxalin-2,3-dione sodium salt]
IC50 (human P2X4; [4]): 570 nM

O=c1nc(-c2cccc(-c3nnn[nH]3)c2)c2ccc3ccccc3c2[nH]1 [Compound D2, 4-[3-(1H-tetrazol-5-yl)phenyl]-1H-benzo[h]quinazolin-2-one sodium salt]
IC50 (human P2X4; [4]): 330 nM

O=C1CC(=O)N(c2ccc(-n3nnnc3Cc3ccccc3O)nc2)c2ccc3ccccc3c2N1 [Compound H11, 5-[6-[5-(2-hydroxybenzyl)-1H-tetrazol-1-yl]pyridin-3-yl]-1H-naphtho[1,2-b][1,4]diazepin-2,4(3H,5H)-dione]
IC50 (human P2X4; Table 134 (Example 14), same protocol as Example 1, read-out: Inhibitory action IC50): 77 nM

COc1c(F)cccc1CCc1nccn1-c1ccc(N2C(=O)CC(=O)Nc3c2ccc2ccccc32)cc1 [Compound H83, 5-[4-[(2-(3-fluoro-2-methoxyphenyl)ethyl)-1H-imidazol-1-yl]phenyl]-1H-naphtho[1,2-b][1,4]diazepin-2,4(3H,5H)-dione hydrochloride]
IC50 (human P2X4; read-out: Inhibitory action IC50): 87 nM

O=C1CC(=O)N(c2ccc(NC(=O)c3ccccc3C(F)(F)F)cc2)c2ccc3ccccc3c2N1 [compound C, 5-[4-[2-(trifluoromethyl)benzoyl]aminophenyl]-1H-naphtho[1,2-b][1,4]diazepin-2,4(3H,5H)-dione]
cough response increased due to airway inflammation ([2]; as stated in Example 15, oral 58.8 mg/kg): inhibited completely | number of coughs, pre versus post administration ([2]; oral 58.8 mg/kg 1 h before 0.5 M citric acid stimulation): significantly decreased

CN(C)c1ncccc1C(=O)Nc1ccc(C2=NCC(=O)Nc3c2ccc2ccccc32)cc1.Cl.Cl [compound D, 2-(dimethylamino)-N-[4-(2-oxo-2,3-dihydro-1H-naphtho[1,2-e][1,4]diazepin-5-yl)phenyl]nicotinamide dihydrochloride]
cough response increased due to airway inflammation ([2]; as stated in Example 15, oral 30 mg/kg): completely inhibit | number of coughs, pre versus post administration ([2]; oral 30 mg/kg 1 h before 0.5 M citric acid stimulation): significantly decreased

COc1ccc2c3c1O[C@H]1[C@@H](O)CC[C@H]4[C@@H](C2)N(C)CC[C@@]341 [dihydrocodeine, reference compound]
cough inhibition rate, compound A versus the same dose of dihydrocodeine [3]: comparable

TNP-ATP
number of coughs induced by citric acid and increased depending on the concentration of ATP ([1]; Non Patent Literature 2): decreased | inhibition of the ATP-elicited increase of citric acid-induced cough ([1]; guinea pigs, inhalation pretreatment / aerosol, Non Patent Literature 1): completely inhibited
